Reference: PMC2846469, “Pharmacokinetic Study of a Novel Antihyperlipidemic Agent LM-13765- A Prodrug” (Indian Journal of Pharmaceutical Sciences, 2009)
“Also recorded” adds a separate entry of the source.

What was measured:
mice = details: up to the dose of 4.5 g/kg, earlier study reported in the introduction; cited from earlier work
[1] = Stability in plasma under storage conditions; assay type: in vitro ADME, rabbit; details: -20°, one day (24 h)
Description: The method was validated in terms of linearity, limit of quantitation, limit of detection, precision, accuracy and specificity. The linear response for LM 13765 spiked in plasma, was determined by analyzing corresponding samples five times for each concentration in the range of 12.5 to 100 ng/spot. The lowest concentration of the calibration range is taken as the limit of quantitation for LM 13765 while the limit of detection was determined by spotting concentrations of LM 13765 lower than the limit of quantitation. […] The recovery of LM 13765 from plasma (extraction efficiency) was determined by comparing peak areas obtained from plasma spiked with LM 13765 at concentration levels of 12.5, 25, 50, 75 and 100 ng/spot with the corresponding standards of LM 13765. Accuracy of the proposed method was determined by standard addition method at three different concentrations of LM 13765 in the range of 12.5 to 100 ng/spot. Specificity of the proposed method was assessed in terms of purity of chromatographic peak corresponding to LM 13765 by correlating the spectra scanned at peak start, peak apex and peak end positions of the spot corresponding to LM 13765. […] The sample was analyzed, on the same day as well as after 24 h storage, for the amounts of LM 13765. […]

[2] = Preliminary in vivo study: serum LM 13765 by HPTLC after oral LM 13765; set-up: species or system rabbits (New Zealander strain); details: rabbits, oral 100 mg/kg, samples 0.5-12 h
Description: Drug/metabolite-free plasma or plasma spiked with fixed aliquots of LM 13765 or rabbit serum sample (0.2 ml) was taken in a glass centrifuge tube (15 ml capacity). Sufficient amount of acetonitrile was added to make the volume to 1.6 ml and vortexed at high speed for 1 min. The mixture was centrifuged (2500 rpm, 15 min) and the clear supernatant layer was transferred to another tube and dried over anhydrous sodium sulphate (0.25 g). Adequate volumes of the dried acetonitrile layer were spotted onto the TLC plate. Chromatographic estimations were performed using precoated silica gel 60 F254 TLC plates (prewashed with methanol and dried in air) under following conditions; A mobile phase, benzene:methanol (8:2 v/v); chamber saturation time, 60 min; temperature, 25±2°; development of plates, ascending mode; migration distance, 50 mm; slit dimension, 3×0.3 mm; wavelength of detection, 314 nm; band width, 4 mm; space between two bands, 4 mm; spraying rate, 10 μl/s.
Suitable volumes of standard solution of LM 13765 in acetonitrile or extracts of drug/metabolite-free plasma or rabbit serum samples, were applied on TLC plate under nitrogen stream using semiautomatic spotter. The plate was dried in air and developed at constant temperature (25±2°) using a mixture of benzene:methanol (8:2 v/v) as the mobile phase. […] Peak area values were used for quantitative determination. […]

[3] = tested on: serum cholesterol, triglycerides and HDL levels; set-up: method as in PMID 9037441; details: cited from earlier work
hyperlipidemic rats = assay: Biological screening for antihyperlipidemic activity on hyperlipidemic rats; assay type: in vivo

| Compound | mortality or behavioral changes after oral administration (mice) | Stability in plasma under storage conditions [1] | Parent LM 13765 in serum after oral administration (HPTLC spot Rf 0.21) [2] | potency versus standard drug gemfibrozil in lowering serum cholesterol and triglycerides and elevating serum HDL [3] | antihyperlipidemic activity relative to parent compound LM 13765 (hyperlipidemic rats) |
| --- | --- | --- | --- | --- | --- |
| CCOC(=O)C(C#N)=C(NC=N)Nc1ccc(Cl)cc1 [LM 13765, N-[2-carbethoxy-2-cyano-1-(p-chloroanilino)vinyl]formamidine] | no mortality or behavioral changes | undergoes significant degradation in one day | no spot corresponding to LM 13765 | more potent than the standard drug gemfibrozil |  |
| CCOC(=O)C(C#N)=C(N)Nc1ccc(Cl)cc1 [LM 13765-C, ethyl 3-amino-2-cyano-3-(p-chloroanilino)acrylate] |  | stable |  |  | less potent than the parent compound; also recorded: very good antihyperlipidemic activity but is less potent than the parent compound |
